Literature values as cited in patent publication US12371983B2, “Large-scale carbon-mineralization through oxalatization” (THE CURATORS OF THE UNIVERSITY OF MISSOURI, priority 2021, dated 2025).
Values after ≈ are worked out from the molar mass of the structure shown.

Conditions: at 20° C. and one atmospheric pressure

- solubility in water: ~1800 µg/mL (≈ 40.9 mM)
Compound: O=C=O [CO2]
